The values below come from patent US20100113363A1, “Use of GLP-1 Peptides” (Novo Nordisk A/S, priority 1996, published 2010).

Like-named read-outs stand apart in the source and are kept apart here. No end group written: not given here.

For test [1] the following is noted: rats, Tang-Christensen et al., cited from earlier work.
The nature of test [2]: Appetite suppression in mice: sucrose consumption, tested immediately after intraperitoneal injection. In kind it is in vivo. The conditions noted are these: 85 micrograms (3.4 mg/kg) intraperitoneally, 10 minute period, p-value 0.002. On the procedure:
Mice were deprived of their normal food for two days and given free access to a 20% sucrose solution on the first day of food deprivation. After the two day food deprivation period, the mice were injected intraperitoneally with 0.5ml of a solution containing the test substance. Immediately after injection, individual mice were placed in one of eight 15 cm square test boxes with a stainless steel grid floor and a glass drinking tube which projected into the box. […] Consumption of the sucrose solution was measured over a 10 minute period by electronically recording the total amount of contact with the sucrose solution during the test session. The degree of appetite suppression produced by a given test substance was determined by statistical comparison of the mean duration of sucrose consumption by control (vehicle treated) mice with that of mice treated with a test substance. The degree of appetite suppression in a treated group of mice was expressed as percent difference between the test and control group's response duration means. […]

The conditions of test [3]: rats, Turton et al., cited from earlier work.
Test [4] can be described thus: Suppression of appetite in mice by subcutaneously injected synthetic GLP-1(7-36)amide: Complan consumption. Format: in vivo. The conditions noted are these: p<0.001. On the procedure:
The test method was as described in Example 3 except that the mice were pre-exposed to formula milk (Complan®—a nutritionally complete infant milk substitute) for one day, then fasted […]. On the test day, consumption of Complan® was measured for each mouse during a 10 min period.
Mice were tested for appetite suppression by subcutaneous injection of GLP-1(7-36)amide dissolved in phosphate buffered saline.

A short description of test [5]: iv infusion of GLP-1(7-36)amide in healthy human volunteers: visual analogue scale ratings and ad libitum lunch energy intake. Format: in vivo. The conditions noted are these: iv infusion 50 pmol/(kg·h). The text has this: Healthy human volunteers (20 subjects) were in a double-blind crossover trial given an iv infusion of 50 pmol/(kg·h) of GLP-1(7-36)amide or saline on separate, but otherwise identical experimental days. The infusion was started at 9.00 and lasted until 15.00. At 9.45 the subjects received a fixed amount of breakfast and at 14.15 they had lunch of an identical composition but ad libitum. The subjects rated their feeling of satiety, hunger, fullness and appetite on a visual analogue scale every half hour. The results are given below:
The energy intake of each subjects was measured. The intakes were 3.9 MJ with GLP-1 and 4.3 MJ with Saline resulting in a p-value of 0.009.

The mark [6] stands for this setting: administered intracerebroventricularly.

For “GLP-1(1-36)amide (HDEFERHAEGTFTSDVSSYLEGQAAKEFIAWLVKGR-NH2; UniProt P01275 92-127, looked up, fragment) [fragment 1-36 of GLP-1, C-terminal amide]”, the “effect on food intake” value in test [1] (route not stated) is listed as “no effect”.

With GLP-1(7-36)amide, the “suppression of sucrose consumption” value in test [2] is 60%. Also, the “effect on food intake” value in test [3] (setting [6]) is “profound effect”; in test [3] (peripheral administration), “inactive”; in test [1] (setting [6]) it was “profound effect”; in test [1] (peripherally administered) it was “no significant effect”. For the same substance, in test [4] (1 mg/kg subcutaneous, 30 min after injection), the suppression of feeding is listed as 45%. The “maximum effect, suppression of feeding” value in test [4] (20 mg/kg subcutaneous (highest dose tested)) turned out to be 60%. The same substance returned an energy intake in test [5] (ad libitum lunch, saline 4.3 MJ, p-value 0.009) of 3.9 mJ. In addition, in test [5] (versus saline, p = 0.006), the “Satiety (visual analogue scale)” value is on record as “GLP-1 > Saline, p = 0.006”. In test [5] (versus saline, p = 0.007), the “Appetite (visual analogue scale)” value is “GLP-1 < Saline, p = 0.007”. Besides, the “Hunger (visual analogue scale)” value in test [5] (versus saline, p = 0.007) is given as “GLP-1 < Saline, p = 0.007”. In test [5] (versus saline, p = 0.010), the “Fullness (visual analogue scale)” value is on record as “GLP-1 > Saline, p = 0.010”.
